Residue numbers refer to the chain shown, from its start.
What was measured:
Experiment in all cases: Dynamic properties (Michaelis-Menten) of LsGluDH mutant, PPO reductive amination
Assay type in all cases: biochemical
Details in all cases: PPO 5-100 mM, NADPH 0.15 mM, NH4Cl 50 mM, PBS pH 7.5, 30° C., diluted crude enzyme, 340 nm
[1] = molecular target: T1, Lysinibacillus sphaericus glutamate dehydrogenase (LsGluDH, SEQ ID NO: 2) variant A175G-I133V-V173S-A182R, SEQ ID NO: 38 (Lysinibacillus pinottii, UniProt A0ABT2DNY0, A175G/A182R/I133V/V173S)
T1 sequence (A0ABT2DNY0 1-457 A175G/A182R/I133V/V173S): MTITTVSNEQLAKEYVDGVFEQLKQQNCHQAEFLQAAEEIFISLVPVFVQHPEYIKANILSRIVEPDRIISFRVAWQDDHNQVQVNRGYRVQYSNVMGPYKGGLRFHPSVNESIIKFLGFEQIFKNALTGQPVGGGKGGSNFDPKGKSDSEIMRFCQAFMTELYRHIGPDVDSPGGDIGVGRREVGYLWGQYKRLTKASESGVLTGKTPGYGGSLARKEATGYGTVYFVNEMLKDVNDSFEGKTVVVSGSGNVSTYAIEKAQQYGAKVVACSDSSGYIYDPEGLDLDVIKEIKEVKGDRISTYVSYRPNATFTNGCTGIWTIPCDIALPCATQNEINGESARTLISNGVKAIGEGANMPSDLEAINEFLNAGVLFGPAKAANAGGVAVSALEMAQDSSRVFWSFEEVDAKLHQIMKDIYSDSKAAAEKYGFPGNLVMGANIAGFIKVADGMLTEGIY
Description: (§1) A plurality of reaction systems (200 μL) comprising PBS of 100 mM pH 7.5 (pH was adjusted with aqueous ammonia solution), NADPH (reductive) of 0.15 mM, NH4Cl of 50 mM, diluted (500 folds) crude enzyme solution of 10% volume and the substrate PPO at various concentrations (5-100 mM) were formulated on a 96-well plate. The intensity of the UV absorption at 340 nm was detected at 30° C., and the rate of change in absorption over time (mA/min) was recorded. The obtained parameters were plugged into Michaelis-Menten equation, in which the reaction velocity was calculated with the rate of change in absorption.
(§2) The mutants were prepared with the coding nucleic acid of LsGluDH (SEQ ID NO: 2) as the template, and the enzyme activities and the dynamic parameters Vmax and Km were measured, according to the method of Example 1. The resulted mutants and the enzyme activities and the dynamic parameters thereof are shown in Table 2, and the relative enzyme activity means the percentage of the enzyme activity of the mutant to the enzyme activity of the mutant of SEQ ID NO: 31.

[2] = molecular target: T2, Lysinibacillus sphaericus glutamate dehydrogenase (LsGluDH, SEQ ID NO: 2) variant A175G-V173G-A182R, SEQ ID NO: 37 (Lysinibacillus pinottii, UniProt A0ABT2DNY0, A175G/A182R/V173G)
T2 sequence (A0ABT2DNY0 1-457 V173G/A175G/A182R): T1 sequence (A0ABT2DNY0 1-457 A175G/A182R/I133V/V173S) with V133I, S173G
Description: as §1, §2

[3] = molecular target: T3, Lysinibacillus sphaericus glutamate dehydrogenase (LsGluDH, SEQ ID NO: 2) variant A175G-P132L, SEQ ID NO: 32 (Lysinibacillus pinottii, UniProt A0ABT2DNY0, A175G/P132L)
T3 sequence (A0ABT2DNY0 1-457 P132L/A175G): T1 sequence (A0ABT2DNY0 1-457 A175G/A182R/I133V/V173S) with P132L, V133I, S173V, R182A
Description: as §1, §2

[4] = molecular target: T4, Lysinibacillus sphaericus glutamate dehydrogenase (LsGluDH, SEQ ID NO: 2) variant A175G-A182R, SEQ ID NO: 36 (Lysinibacillus pinottii, UniProt A0ABT2DNY0, A175G/A182R)
T4 sequence (A0ABT2DNY0 1-457 A175G/A182R): T1 sequence (A0ABT2DNY0 1-457 A175G/A182R/I133V/V173S) with V133I, S173V
Description: as §1, §2

Q: For `CP(=O)(O)CCC(=O)C(=O)O` [PPO, 2-carbonyl-4-(hydroxymethylphosphono) butyric acid], which Km [1] is on record?
A: 26 mM

Q: What about the Vmax [1] of the same compound?
A: 38 mA/min

Q: And the Km [2]?
A: 31 mM

Q: And the Vmax [2]?
A: 58 mA/min

Q: And the Km [3]?
A: 35 mM

Q: What about the Vmax [3] of the same compound?
A: 45 mA/min

Q: What about the Km [4] of the same compound?
A: 38 mM

Q: And the Vmax [4]?
A: 46 mA/min

Reference: patent US20250129344A1, “MODIFIED GLUTAMATE DEHYDROGENASE AND APPLICATION THEREOF” (Hunan Lier Biotech Co., Ltd., priority 2021, published 2025)
